pIC50: −log10 of the molar value.
Legend:
[1] = target: T1, Recombinant ROCK1 (amino acids 1-477) (Homo sapiens, UniProt Q13464); experiment: ROCK inhibition assay, LANCE Ultra TR-FRET kinase assay (ROCK1); assay type: biochemical; settings: 1 μM ATP, 50 nM ULight-CREBtide substrate
T1 construct: Recombinant ROCK1 (amino acids 1-477); by word order, ROCK1 from Carna Biosciences
Method in brief: (§1)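 Reaction buffer 50 mM HEPES pH 7.5, 10 mM MgCl2, 1 mM EGTA, 2 mM DTT; kinase, ULight-CREBtide (50 nM) and ATP (ROCK1 1 μM, ROCK2 4 μM) react 1 h at room temperature. Phospho-Ser133 detected by europium antibody after 10 mM EDTA stop, TR-FRET ex 320 nm; IC50 calculated.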

[2] = target: T2, Recombinant ROCK2 (amino acids 5-554) (Homo sapiens, UniProt O75116); experiment: ROCK inhibition assay, LANCE Ultra TR-FRET kinase assay (ROCK2); assay type: biochemical; settings: 4 μM ATP, 50 nM ULight-CREBtide substrate
T2 construct: ROCK2 (amino acids 5-554); by word order, ROCK2 from SignalChem
T2 sequence (O75116 5-554): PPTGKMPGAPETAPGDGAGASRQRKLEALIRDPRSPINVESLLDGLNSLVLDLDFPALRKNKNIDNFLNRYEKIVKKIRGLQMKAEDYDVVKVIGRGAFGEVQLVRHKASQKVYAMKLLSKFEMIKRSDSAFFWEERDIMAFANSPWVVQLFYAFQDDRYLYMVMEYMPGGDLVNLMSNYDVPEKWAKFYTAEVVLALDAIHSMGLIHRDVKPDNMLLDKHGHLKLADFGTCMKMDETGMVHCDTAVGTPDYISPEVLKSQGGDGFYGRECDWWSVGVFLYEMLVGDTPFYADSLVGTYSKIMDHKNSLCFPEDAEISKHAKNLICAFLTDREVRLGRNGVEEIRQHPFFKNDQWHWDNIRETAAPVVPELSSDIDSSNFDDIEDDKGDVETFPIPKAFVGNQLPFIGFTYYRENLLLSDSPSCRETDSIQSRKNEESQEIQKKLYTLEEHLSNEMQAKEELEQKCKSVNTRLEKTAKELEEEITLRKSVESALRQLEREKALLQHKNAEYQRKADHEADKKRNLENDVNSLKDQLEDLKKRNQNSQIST
Method in brief: as §1

T1 sequence (Q13464 1-477): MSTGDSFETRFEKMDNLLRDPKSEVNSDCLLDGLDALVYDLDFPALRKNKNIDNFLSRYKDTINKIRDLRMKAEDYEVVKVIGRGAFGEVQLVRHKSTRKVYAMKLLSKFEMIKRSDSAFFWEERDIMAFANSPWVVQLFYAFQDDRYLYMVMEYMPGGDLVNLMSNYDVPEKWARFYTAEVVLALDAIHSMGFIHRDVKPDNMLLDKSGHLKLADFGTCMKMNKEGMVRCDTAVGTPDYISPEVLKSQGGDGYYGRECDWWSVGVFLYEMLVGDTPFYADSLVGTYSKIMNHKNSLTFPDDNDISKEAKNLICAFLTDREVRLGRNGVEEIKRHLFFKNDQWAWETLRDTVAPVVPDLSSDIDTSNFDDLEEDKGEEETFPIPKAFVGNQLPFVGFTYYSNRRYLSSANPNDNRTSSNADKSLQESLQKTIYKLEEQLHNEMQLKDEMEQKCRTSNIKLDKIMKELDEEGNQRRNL

Row | pIC50 [1] | pIC50 [2] | SMILES
1 | 6.30 to 7.00 | 7.00 to 8.00 | Cc1nocc1-c1ccc2c(=O)n(Cc3cc(F)cc(NC(=O)c4ccccn4)c3)ccc2c1 [Compound 350]
2 | 6.30 to 7.00 | 7.00 to 8.00 | CC(C)N1CCC(NC(=O)c2cc(F)cc(Cn3ccc4cc(-c5ccnn5C)ccc4c3=O)c2)CC1 [Compound 175]
3 | 6.30 to 7.00 | 7.00 to 8.00 | Nc1cc(-c2ccc3c(=O)n(Cc4cccc(C(=O)NCCc5ccccc5)c4)ccc3c2)ccn1 [Compound 185]
4 | 7.00 to 7.96 | > 8.00 | Cn1nccc1-c1ccc2c(=O)n(Cc3cc(F)cc(C(=O)NC4CCNCC4)c3)ccc2c1 [Compound 177]
5 | < 6.30 | 6.30 to 7.00 | NCC(c1cccc(C(N)=O)c1)n1cnc2cc(-c3ccnc(N)c3)ccc2c1=O (centres unmarked) [Compound 506]
6 | 6.30 to 7.00 | 7.00 to 8.00 | CNC(=O)c1cccc(Cn2ccc3cc(N4CCOCC4)ccc3c2=O)c1 [Compound 328, N-methyl-3-((6-morpholino-1-oxoisoquinolin-2(1H)-yl)methyl)benzamide]
7 | 6.30 to 7.00 | 7.00 to 8.00 | O=C(Nc1cccc(Cn2ccc3cc(-c4c[nH]nc4C(F)F)ccc3c2=O)c1)c1cccnc1 [Compound 342]
8 | 7.00 to 7.96 | > 8.00 | COc1cccc(Cn2ccc3cc(-c4c[nH]nc4C)ccc3c2=O)c1 [Compound 4]
9 | 6.30 to 7.00 | 7.00 to 8.00 | Cn1nccc1-c1ccc2c(=O)n(Cc3cccc(C(=O)NCC(F)(F)F)c3)ccc2c1 [Compound 103]
10 | 6.30 to 7.00 | 7.00 to 8.00 | Nc1cc(-c2ccc3c(=O)n(Cc4cccc(C(=O)Nc5ccc6c(c5)CCOC6)c4)ccc3c2)ccn1 [Compound 196]
11 | 7.00 to 7.96 | > 8.00 | C[C@H](c1cccc(C(=O)NC2CCOCC2)c1)n1cnc2cc(-c3cn[nH]c3C(F)(F)F)ccc2c1=O [Compound 449]
12 | 7.00 to 7.96 | > 8.00 | CNC(=O)c1cccc([C@@H](C)n2cnc3cc(-c4cn[nH]c4C(F)F)ccc3c2=O)c1 [Compound 457]
13 | 6.30 to 7.00 | 7.00 to 8.00 | O=C(NC1CCOCC1)c1cccc(Cn2ccc3cc(-c4c[nH]nc4C(F)(F)F)ccc3c2=O)c1 [Compound 45]
14 | 6.30 to 7.00 | > 8.00 | Cn1nccc1-c1ccc2c(=O)n(Cc3cccc(C(=O)NCC4COC4)c3)ccc2c1 [Compound 111]
15 | 6.30 to 7.00 | 7.00 to 8.00 | CNC(=O)c1cccc([C@H](C)n2cnc3cc(-c4cn[nH]c4Cl)ccc3c2=O)c1 [Compound 468]
16 | 7.00 to 7.96 | > 8.00 | O=C(N[C@H]1CC[C@H](O)CC1)c1cccc(Cn2cnc3cc(-c4cn[nH]c4C(F)(F)F)ccc3c2=O)c1 [Compound 383]
17 | 7.00 to 7.96 | > 8.00 | Cc1nocc1-c1ccc2c(=O)n(Cc3cc(F)cc(C(=O)Nc4ccc5c(c4)CN(C4CC4)CC5)c3)ccc2c1 [Compound 161]
18 | < 6.30 | 6.30 to 7.00 | CNC(=O)c1cccc(Cn2ccc3cc(N4CCO[C@@H](C)C4)ccc3c2=O)c1 [Compound 331]
19 | 7.00 to 7.96 | > 8.00 | CNC(=O)c1cccc(Cn2cnc3cc(-c4conc4C)ccc3c2=O)c1 [Compound 411]
20 | 6.30 to 7.00 | 7.00 to 8.00 | NS(=O)(=O)c1ccc(NC(=O)c2cccc(Cn3ccc4cc(-c5c[nH]nc5C(F)(F)F)ccc4c3=O)c2)cc1 [Compound 42]

Row | pIC50 [1] | pIC50 [2] | SMILES
21 | 7.00 to 7.96 | > 8.00 | Cc1nocc1-c1ccc2c(=O)n(Cc3cc(F)cc(C(=O)Nc4ccc5c(c4)CNCC5)c3)ccc2c1 [Compound 160]
22 | 6.30 to 7.00 | 7.00 to 8.00 | C[C@H](c1cccc(C(=O)NCCO)c1)n1cnc2cc(-c3cn[nH]c3C(F)F)ccc2c1=O [Compound 459]
23 | 7.00 to 7.96 | > 8.00 | CNC(=O)c1cccc(Cn2cnc3cc(-c4cn[nH]c4)ccc3c2=O)c1 [Compound 366, N-methyl-3-((4-oxo-7-(1H-pyrazol-4-yl)quinazolin-3(4H)-yl)methyl)benzamide]
24 | < 6.30 | 6.30 to 7.00 | N#Cc1cccc(C(CN)n2cnc3cc(-c4cn[nH]c4Cl)ccc3c2=O)c1 (centres unmarked) [Compound 504]
25 | 7.00 to 7.96 | > 8.00 | CNC(=O)c1cccc(Cn2cc(CC(C)O)c3cc(-c4c[nH]nc4N)ccc3c2=O)c1 (centres unmarked) [Compound 562]
26 | > 8.00 | > 8.00 | Cc1nocc1-c1ccc2c(=O)n(Cc3cccc(C(=O)Nc4ccc5c(c4)CCN(C(C)C)C5)c3)ccc2c1 [Compound 98]
27 | 7.00 to 7.96 | > 8.00 | CNC(=O)c1cc(F)cc(Cn2ccc3cc(-c4cn[nH]c4Cl)ccc3c2=O)c1 [Compound 293]
28 | 6.30 to 7.00 | 7.00 to 8.00 | CS(=O)(=O)Nc1cccc(CNC(=O)c2cccc(Cn3cnc4cc(-c5cn[nH]c5C(F)F)ccc4c3=O)c2)c1 [Compound 399]
29 | 6.30 to 7.00 | 6.30 to 7.00 | Cc1nocc1-c1ccc2c(=O)n(Cc3cc(F)cc(C(=O)N[C@H]4CC[C@@H](O)CC4)c3)ccc2c1 [Compound 140]
30 | < 6.30 | 6.30 to 7.00 | CNC(=O)c1cccc(Cn2ccc3cc(-c4conc4C)ccc3c2=O)n1 [Compound 311]
31 | 7.00 to 7.96 | > 8.00 | COc1cccc(Cn2ccc3cc(-c4conc4C)ccc3c2=O)c1 [Compound 9]
32 | 7.00 to 7.96 | > 8.00 | Cc1nocc1-c1ccc2c(=O)n(Cc3cc(F)cc(C(=O)Nc4ccn(C)n4)c3)ccc2c1 [Compound 156]
33 | 7.00 to 7.96 | > 8.00 | COc1cc(F)cc(Cn2ccc3cc(-c4c[nH]nc4Cl)ccc3c2=O)c1 [Compound 17]
34 | > 8.00 | > 8.00 | Cc1nocc1-c1ccc2c(=O)n(Cc3cccc(C(=O)Nc4ccc5c(c4)CNCC5)c3)ccc2c1 [Compound 100]
35 | 6.30 to 7.00 | 7.00 to 8.00 | O=C(NCC1CCN(CC(F)(F)F)CC1)c1cccc(Cn2ccc3cc(N4CCOCC4)ccc3c2=O)c1 [Compound 220]
36 | < 6.30 | 6.30 to 7.00 | O=C(N[C@H]1C[C@@H](O)C1)c1cc(F)cc(Cn2ccc3cc(N4CCOCC4)ccc3c2=O)c1 [Compound 209]
37 | 6.30 to 7.00 | 7.00 to 8.00 | COc1cccc(C(C)n2ccc3cc(-c4ccnc(N)c4)ccc3c2=O)c1 (centres unmarked) [Compound 26]
38 | 6.30 to 7.00 | 7.00 to 8.00 | O=C(Nc1cccc(Cn2ccc3cc(-c4c[nH]nc4Cl)ccc3c2=O)c1)C1COC1 [Compound 346]
39 | 7.00 to 7.96 | > 8.00 | CN1CCC(NC(=O)c2cc(F)cc(Cn3ccc4cc(-c5c[nH]nc5C(F)(F)F)ncc4c3=O)c2)CC1 [Compound 259]
40 | 7.00 to 7.96 | > 8.00 | O=C(NCC1CCOCC1)c1cccc(Cn2cnc3cc(-c4cn[nH]c4C(F)(F)F)ccc3c2=O)c1 [Compound 379]

Row | pIC50 [1] | pIC50 [2] | SMILES
41 | 7.00 to 7.96 | > 8.00 | CC(C)NC(=O)c1cccc([C@@H](C)n2cnc3cc(-c4cn[nH]c4C(F)(F)F)ccc3c2=O)c1 [Compound 445]
42 | 6.30 to 7.00 | 7.00 to 8.00 | Cc1nocc1-c1ccc2c(=O)n(Cc3cc(F)cc(C(=O)NCC4CCN(C(C)C)CC4)c3)ccc2c1 [Compound 152]
43 | 6.30 to 7.00 | 7.00 to 8.00 | CNC(=O)c1cccc(Cn2cc(CCO)c3cc(-c4conc4C)ccc3c2=O)c1 [Compound 552]
44 | < 6.30 | 6.30 to 7.00 | O=C(NC1CCOCC1)c1cccc(Cn2ccc3cc(N4CCOCC4)ccc3c2=O)c1 [Compound 212]
45 | > 8.00 | > 8.00 | C[C@H](c1cccc(C(=O)NCC2CCN(C)CC2)c1)n1cnc2cc(-c3cn[nH]c3Cl)ccc2c1=O [Compound 465]
46 | 7.00 to 7.96 | 7.00 to 8.00 | CC(=O)Nc1cccc(Cn2ccc3cc(-c4c[nH]nc4Cl)ccc3c2=O)c1 [Compound 345]
47 | 7.00 to 7.96 | 7.00 to 8.00 | Cc1[nH]ncc1-c1ccc2c(=O)n(C(CO)c3cccc(Cl)c3)cnc2c1 (centres unmarked) [Compound 485]
48 | > 8.00 | > 8.00 | CN1CCC(CNC(=O)c2cccc(Cn3ccc4cc(-c5c[nH]nc5Cl)ccc4c3=O)c2)CC1 [Compound 64]
49 | 7.00 to 7.96 | > 8.00 | CNC(=O)c1cc(F)cc(Cn2cnc3cc(-c4cn[nH]c4C(F)F)ccc3c2=O)c1 [Compound 401]
50 | 7.00 to 7.96 | > 8.00 | CNC(=O)c1cccc([C@H](C)n2cnc3cc(-c4cn[nH]c4C(F)(F)F)ccc3c2=O)c1 [Compound 444]
51 | 7.00 to 7.96 | > 8.00 | O=C(NCC1CCOCC1)c1cc(F)cc(Cn2ccc3cc(-c4c[nH]nc4C(F)F)ccc3c2=O)c1 [Compound 60]
52 | < 6.30 | 6.30 to 7.00 | CNC(=O)c1cccc(Cn2ccc3cc(-c4cn[nH]c4C(F)(F)F)cnc3c2=O)c1 [Compound 242]
53 | 6.30 to 7.00 | 7.00 to 8.00 | CS(=O)(=O)Nc1ccc(NC(=O)c2cccc(Cn3cnc4cc(-c5cn[nH]c5C(F)(F)F)ccc4c3=O)c2)cc1 [Compound 385]
54 | 7.00 to 7.96 | > 8.00 | CNC(=O)c1cccc(C(C)n2cc(CCN(C)C)c3cc(-c4cn[nH]c4Cl)ccc3c2=O)c1 (centres unmarked) [Compound 565]
55 | 7.00 to 7.96 | > 8.00 | O=C(NCCc1ccccn1)c1cccc(Cn2ccc3cc(-c4cn[nH]c4)ccc3c2=O)c1 [Compound 27, 3-((1-oxo-6-(1H-pyrazol-4-yl)isoquinolin-2(1H)-yl)methyl)-N-(2-(pyridin-2-yl)ethyl)benzamide]
56 | 6.30 to 7.00 | 7.00 to 8.00 | O=C(Nc1cccc(Cn2ccc3cc(-c4c[nH]nc4C(F)F)ccc3c2=O)c1)c1ccccc1 [Compound 344]
57 | 6.30 to 7.00 | 7.00 to 8.00 | Cc1nocc1-c1ccc2c(=O)n(Cc3cc(F)cc(C(=O)N[C@H]4C[C@H](O)C4)c3)ccc2c1 [Compound 138]
58 | > 8.00 | > 8.00 | Cn1nccc1-c1ccc2c(=O)n(Cc3cccc(C(=O)NC4CCNCC4)c3)ccc2c1 [Compound 105]

From US12064426B2, “Selective inhibitors of ROCK1 and ROCK2 protein kinases and uses thereof” (GENOSCO Inc., priority 2021, dated 2024)
